Laboratory results taken from patent US20130295026A1, “FAST DISINTEGRATING COMPOSITIONS COMPRISING NABILONE AND RANDOMLY METHYLATED BETA CYCLODEXTRIN” (priority 2010, published 2013).

Experiments:
[1] = 25° C; cited from earlier work
[2] = Amount of Nabilone solubilized by cyclodextrin solutions, determined by extraction of the drug from lyophilized complexes (HPLC); settings: for Increase of Nabilone solubility compared to water: water <0.5 μg/ml
Procedure: For the preparation of solubility isotherms, a surplus of Nabilone was added to a dilution series of cyclodextrins in distilled water. The surplus of Nabilone was approximately 130% of the maximum amount of Nabilone that could be resolved theoretically in the cyclodextrin solution. For the preparation of standard curves, an accurately weighted amount of Nabilone was added to an aqueous RAMEB solution. Then, the suspensions were stirred at 600 rpm at a constant temperature (4° C.-40° C.) in the cold room or in an environmental simulation chamber for the time periods indicated. Afterwards, the samples were centrifuged at 10,000 rpm and filtrated to remove undissolved particles prior to freeze-drying or HPLC analysis.
The filtrated solutions of the Nabilone—cyclodextrin complexes were frozen as a thin film on the inner side of round bottom glass container in a methanol—dry ice bath. Lyophilization was performed for 20 h using a Heto Power Dry LL3000 instrument (Thermo Fisher Scientific).
Freeze-dried products were stirred with acetonitrile for 30 min to promote complex dissociation and extraction of Nabilone. Samples were centrifuged and the residue was washed again two times with acetonitrile. Combined acetonitrile supernatants were evaporated under vacuum and the residue dissolved in a defined amount of acetonitrile. After centrifugation (10,000 rpm, 5 min) the content of Nabilone was measured using HPLC and related to 1 ml of the initial reaction solution.
Many cyclodextrins and cyclodextrin derivatives are not soluble in acetonitrile, which in contrast is the optimal solvent for Nabilone, preventing analysis of the Nabilone-cyclodextrin complexes with HPLC. […] The concentrations of the cyclodextrin solutions were adapted to their solubility in water. Whenever possible, concentrations of 15%, 20%, and 30% were selected.

Compound | Aqueous solubility of Nabilone [1] | Nabilone solubility in water ([2]; H2O, no cyclodextrin) | solubility ([2]; water, thermodynamic from solid, Nabilone solubility in water, H2O, no cyclodextrin) | Amount of Nabilone solubilized by 1 ml cyclodextrin solution ([2]; 15% cyclodextrin solution) | Amount of Nabilone solubilized by 1 ml cyclodextrin solution ([2]; 20% cyclodextrin solution) | Amount of Nabilone solubilized by 1 ml cyclodextrin solution ([2]; 30% cyclodextrin solution) | Increase of Nabilone solubility compared to water ([2]; 30% cyclodextrin solution)
CCCCCCC(C)(C)c1cc(O)c2c(c1)OC(C)(C)C1CCC(=O)CC21 (stereo not drawn) [Nabilone] | less than 0.5 μg/ml | 0.5 µg/mL | < 0.5 µg/mL |  |  |  | 
hydroxypropyl-β-Cyclodextrin [HP-β-CD] |  |  |  | 16.2 ± 5.4 µg/mL | 32.2 ± 0.1 µg/mL | 44.5 ± 0.8 µg/mL | 90 fold
β-CD sulfobutyl ether sodium salt [SBE-β-CD] |  |  |  |  |  | <1 µg/mL | 
randomly methylated β-Cyclodextrin [RAMEB] |  |  |  | 2620 ± 70 µg/mL | 3330 ± 390 µg/mL | 4,460±180 μg/ml | up to 9.000 fold
